# Measured values taken from patent US11964953B2, “Substituted aminothiazoles as DGKzeta inhibitors for immune activation” (Bayer Aktiengesellschaft, priority 2020, dated 2024).
# Molecular target: human DGKζ (Homo sapiens (Human), UniProt Q13574)
# Assay: Human DGKζ kinase activity inhibition assay (ADP-Glo)
# Assay type: biochemical
# Conditions: in vitro human DGKζ kinase activity inhibition assay; read-out: IC50
# Summary of the method: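 Enzyme was C-terminally FLAG-tagged full-length recombinant human DGKζ from baculovirus-infected insect cells. Substrate preparation used octyl-β-D-glucopyranoside in 50 mM MOPS pH 7.4 with sonication; ADP generated was quantified by ADP-Glo luminescence as activity measure.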
# Chain of human DGKζ (Q13574 other isoform, or with tags, fused parts or gaps): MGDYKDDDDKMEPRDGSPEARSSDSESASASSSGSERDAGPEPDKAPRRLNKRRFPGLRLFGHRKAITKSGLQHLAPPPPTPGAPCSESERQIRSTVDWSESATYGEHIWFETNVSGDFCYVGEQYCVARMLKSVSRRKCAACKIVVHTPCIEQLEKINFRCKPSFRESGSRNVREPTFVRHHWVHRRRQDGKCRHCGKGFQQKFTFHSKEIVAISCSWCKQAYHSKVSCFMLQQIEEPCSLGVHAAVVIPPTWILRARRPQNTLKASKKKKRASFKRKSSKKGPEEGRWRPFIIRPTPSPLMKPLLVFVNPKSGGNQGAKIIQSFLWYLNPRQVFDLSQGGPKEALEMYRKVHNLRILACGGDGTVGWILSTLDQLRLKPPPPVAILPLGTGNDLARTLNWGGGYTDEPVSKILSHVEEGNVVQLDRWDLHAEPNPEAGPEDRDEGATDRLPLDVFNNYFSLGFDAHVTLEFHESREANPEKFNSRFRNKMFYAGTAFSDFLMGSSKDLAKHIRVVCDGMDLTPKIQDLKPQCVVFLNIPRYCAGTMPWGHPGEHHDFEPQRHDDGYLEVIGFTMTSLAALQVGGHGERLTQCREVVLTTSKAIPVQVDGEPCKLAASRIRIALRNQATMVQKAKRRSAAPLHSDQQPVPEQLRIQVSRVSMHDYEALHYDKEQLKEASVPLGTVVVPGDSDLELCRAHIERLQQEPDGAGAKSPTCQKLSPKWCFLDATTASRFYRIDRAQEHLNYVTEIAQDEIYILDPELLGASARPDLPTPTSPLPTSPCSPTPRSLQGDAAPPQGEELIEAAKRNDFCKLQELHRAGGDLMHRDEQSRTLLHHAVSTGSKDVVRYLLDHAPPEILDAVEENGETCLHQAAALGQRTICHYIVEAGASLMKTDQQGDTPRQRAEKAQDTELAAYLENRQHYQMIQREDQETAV
row,Compound,IC50 [nM]
1,"COc1ccc(C(=O)c2sc(N(c3ccc(F)cc3)C(C)C(N)=O)nc2N)c(F)c1 (racemic) [Example 23, rac-2-(N-[4-amino-5-(2-fluoro-4-methoxy-benzoyl)thiazol-2-yl]-4-fluoro-anilino)propanamide]",130
2,"CC(C(N)=O)N(c1ccc(Cl)c(F)c1)c1nc(N)c(C(=O)c2ccccc2)s1 (racemic) [Example 36, rac-2-(N-(4-amino-5-benzoyl-thiazol-2-yl)-4-chloro-3-fluoro-anilino)propanamide]",22.2
3,"CC(C(N)=O)N(c1ccc(F)cc1)c1nc(N)c(C(=O)c2ccc(C#N)cc2F)s1 (racemic) [Example 22, rac-2-(N-[4-amino-5-(4-cyano-2-fluoro-benzoyl)thiazol-2-yl]-4-fluoro-anilino)propanamide]",130
4,"COc1ccc(C(=O)c2sc(N(c3ccc(F)c(F)c3)C(C)C(N)=O)nc2N)cc1 (racemic) [Example 51, rac-2-(N-[4-amino-5-(4-methoxybenzoyl)thiazol-2-yl]-3,4-difluoro-anilino)propanamide]",16.6
5,"CC(C(N)=O)N(c1ccc(OC(F)(F)F)nc1)c1nc(N)c(C(=O)c2ccc(OC(F)F)nc2)s1 (racemic) [Example 251, rac-2-[[4-amino-5-[6-(difluoromethoxy)pyridine-3-carbonyl]thiazol-2-yl]-[6-(trifluoromethoxy)-3-pyridyl]amino]propanamide]",87
6,"CC(C(N)=O)N(c1ccc(OC(F)(F)F)c(Cl)c1)c1nc(N)c(C(=O)c2ccc(Cl)cc2)s1 (racemic) [Example 223, rac-2-[N-[4-amino-5-(4-chlorobenzoyl)thiazol-2-yl]-3-chloro-4-(trifluoromethoxy)anilino]propanamide]",235
7,"Cc1nc(N(c2ccc(F)c(F)c2)C(C)C(N)=O)sc1C(=O)c1ccc(OC(F)F)cc1 (racemic) [Example 55, rac-2-(N-[5-[4-(difluoromethoxy)benzoyl]-4-methyl-thiazol-2-yl]-3,4-difluoro-anilino)propanamide]",9.74
8,"CC(Oc1ccc(C(=O)c2sc(N(c3ccccc3)C(C)C(N)=O)nc2N)cc1)C(N)=O (single isomer, unassigned) [Example 45.4, 2-(N-[4-amino-5-[4-[2-amino-1-methyl-2-oxo-ethoxy]benzoyl]thiazol-2-yl]anilino)propanamide]",> 20000
9,"CC(C(N)=O)N(c1ccc(OC(F)F)c(Cl)c1)c1nc(N)c(C(=O)c2ccc(Cl)cc2)s1 (racemic) [Example 202, rac-2-[N-[4-amino-5-(4-chlorobenzoyl)thiazol-2-yl]-3-chloro-4-(difluoromethoxy)anilino]propanamide]",69
10,"CC(C(N)=O)N(c1ccc(F)c(F)c1)c1nc(N)c(C(=O)c2ccc(NC(=O)OCc3ccccc3)cc2)s1 (racemic) [Example 167, rac-benzyl N-[4-[4-amino-2-(N-(2-amino-1-methyl-2-oxo-ethyl)-3,4-difluoro-anilino)thiazole-5-carbonyl]phenyl]carbamate]",2
11,"CC(C(N)=O)N(c1ccc(C(F)(F)F)cc1)c1nc(N)c(C(=O)c2ccccc2)s1 (racemic) [Example 28, rac-2-[N-(4-amino-5-benzoyl-thiazol-2-yl)-4-(trifluoromethyl)anilino]propanamide]",61
12,"COc1ccc(C(=O)c2sc(N(c3ccc(Cl)c(F)c3)C(C)C(N)=O)nc2N)cc1 (single isomer, unassigned) [Example 59.2, 2-(N-[4-amino-5-(4-methoxybenzoyl)thiazol-2-yl]-4-chloro-3-fluoro-anilino)propanamide]",424
13,"Cc1cccc(NC(=O)COc2ccc(C(=O)c3sc(N(c4ccc(F)cc4)C(C)C(N)=O)nc3N)cc2)c1 (racemic) [Example 87, rac-2-(N-[4-amino-5-[4-[2-(3-methylanilino)-2-oxo-ethoxy]benzoyl]thiazol-2-yl]-4-fluoro-anilino)propanamide]",8.53
14,"CC(C(N)=O)N(c1ccc(F)cc1)c1nc(N)c(C(=O)c2ccc(OCC(=O)N(C)Cc3cccnc3)cc2)s1 (racemic) [Example 137, rac-2-(N-[4-amino-5-[4-[2-[methyl(3-pyridylmethyl)amino]-2-oxo-ethoxy]benzoyl]thiazol-2-yl]-4-fluoro-anilino)propanamide]",238
15,"Cc1ccccc1N(C)C(=O)COc1ccc(C(=O)c2sc(N(c3ccc(F)cc3)C(C)C(N)=O)nc2N)cc1 (racemic) [Example 138, rac-2-(N-[4-amino-5-[4-[2-(N,2-dimethylanilino)-2-oxo-ethoxy]benzoyl]thiazol-2-yl]-4-fluoro-anilino)propanamide]",61.6
16,"Cc1ccc(N(c2nc(N)c(C(=O)c3ccccc3)s2)C(C)C(N)=O)cc1 (single isomer, unassigned) [Example 73.2, 2-(N-(4-amino-5-benzoyl-thiazol-2-yl)-4-methyl-anilino)propanamide]",82.1

row,Compound,IC50 [nM]
1,"Cc1cc(C(=O)c2sc(N(c3ccc(F)cc3)C(C)C(N)=O)nc2N)ccn1 (racemic) [Example 187, rac-2-(N-[4-amino-5-(2-methylpyridine-4-carbonyl)thiazol-2-yl]-4-fluoro-anilino)propanamide]",1400
2,"CC(C(N)=O)N(c1ccc(Cl)c(F)c1)c1nc(N)c(C(=O)c2ccc(OC(F)F)nc2)s1 (racemic) [Example 164, rac-2-(N-[4-amino-5-[6-(difluoromethoxy)pyridine-3-carbonyl]thiazol-2-yl]-4-chloro-3-fluoro-anilino)propanamide]",7
3,"CC(C(N)=O)N(c1ccc(Cl)c(F)c1)c1nc(N)c(C(=O)c2ccncc2)s1 (single isomer, unassigned) [Example 56.1, 2-(N-[4-amino-5-(pyridine-4-carbonyl)thiazol-2-yl]-4-chloro-3-fluoro-anilino)propanamide]",50.5
4,"CC(C(N)=O)N(c1ccc(Cl)cc1)c1nc(N)c(C(=O)c2ccc(F)cc2)s1 (racemic) [Example 37, rac-2-(N-[4-amino-5-(4-fluorobenzoyl)thiazol-2-yl]-4-chloro-anillno)propanamide]",19.8
5,"CC(C(N)=O)N(c1ccc(F)c(F)c1)c1nc(N)c(C(=O)c2ccc(O)cc2)s1 (single isomer, unassigned; enantiomer 2) [Example 288, 2-(N-[4-amino-5-(4-hydroxybenzoyl)thiazol-2-yl]-3,4-difluoro-anilino)propanamide (enantiomer 2)]",3440
6,"COc1ccc(C(=O)c2sc(N(c3ccc(F)c(Cl)c3)C(C)C(N)=O)nc2N)cc1 (racemic) [Example 161, rac-2-(N-[4-amino-5-(4-methoxybenzoyl)thiazol-2-yl]-3-chloro-4-fluoro-anilino)propanamide]",15
7,"Cc1cc(C(=O)c2sc(N(c3ccc(F)cc3)C(C)C(N)=O)nc2N)ccn1 (single isomer, unassigned) [Example 187.1, 2-(N-[4-amino-5-(2-methylpyridine-4-carbonyl)thiazol-2-yl]-4-fluoro-anilino)propanamide]",553
8,"Cc1nc(N(c2ccc(F)c(F)c2)C(C)C(N)=O)sc1C(=O)c1ccc(OC(F)F)cc1 (single isomer, unassigned) [Example 55.2, 2-(N-[5-[4-(difluoromethoxy)benzoyl]-4-methyl-thiazol-2-yl]-3,4-difluoro-anilino)propanamide]",835
9,"CC(C(N)=O)N(c1ccc(Cl)cc1)c1nc(N)c(C(=O)c2ccc(OC(F)F)cc2)s1 (racemic) [Example 47, rac-2-(N-[4-amino-5-[4-(difluoromethoxy)benzoyl]thiazol-2-yl]-4-chloro-anilino)propanamide]",3.77
10,"CC(C(N)=O)N(c1ccc(Cl)cc1)c1nc(N)c(C(=O)c2ccc(OC(F)F)cc2)s1 (single isomer, unassigned) [Example 47.2, 2-(N-[4-amino-5-[4-(difluoromethoxy)benzoyl]thiazol-2-yl]-4-chloro-anilino)propanamide]",1.96
11,"CC(C(N)=O)N(c1ccc(F)cc1)c1nc(N)c(C(=O)c2ccc(Cl)c(C(F)(F)F)c2)s1 (racemic) [Example 10, rac-2-(N-[4-amino-5-[4-chloro-3-(trifluoromethyl)benzoyl]thiazol-2-yl]-4-fluoro-anilino)propanamide]",425
12,"CC(C(N)=O)N(c1ccc(F)c(F)c1)c1nc(N)c(C(=O)c2ccc(NC(=O)OCc3ccccc3)cc2)s1 (single isomer, unassigned) [Example 167.2, Benzyl N-[4-[4-amino-2-(N-(2-amino-1-methyl-2-oxo-ethyl)-3,4-difluoro-anilino)thiazole-5-carbonyl]phenyl]carbamate]",303
13,"CC(C(N)=O)N(c1ccc(F)cc1)c1nc(N)c(C(=O)c2ccc(OC(C)(C)C(=O)NCc3ccc(Cl)cc3)cc2)s1 (racemic) [Example 273, rac-2-[4-[4-amino-2-(N-(2-amino-1-methyl-2-oxo-ethyl)-4-fluoro-anilino)thiazole-5-carbonyl]phenoxy]-N-[(4-chlorophenyl)methyl]-2-methyl-propanamide]",20
14,"CC(C(N)=O)N(c1ccc(F)c(F)c1)c1nc(N)c(C(=O)c2ccc(C(F)(F)F)nc2)s1 (racemic) [Example 53, rac-2-(N-[4-amino-5-[6-(trifluoromethyl)pyridine-3-carbonyl]thiazol-2-yl]-3,4-difluoro-anilino)propanamide]",30.8
15,"CC(C(N)=O)N(c1ccc(F)cc1)c1nc(N)c(C(=O)c2ccc(OCC(=O)NCc3ccccc3F)cc2)s1 (racemic) [Example 96, rac-2-(N-[4-amino-5-[4-[2-[(2-fluorophenyl)methylamino]-2-oxo-ethoxy]benzoyl]thiazol-2-yl]-4-fluoro-anilino)propanamide]",31.4
16,"CC(C(N)=O)N(c1ccc(F)cc1)c1nc(N)c(C(=O)c2ccc(C(=O)NC[C@@H](C)O)cc2)s1 (mixture of isomers) [Example 265, 4-[4-amino-2-(N-(2-amino-1-methyl-2-oxo-ethyl)-4-fluoro-anilino)thiazole-5-carbonyl]-N-[(2R)-2-hydroxypropyl]benzamide (mixture of stereoisomers)]",459
